The results in this text go back to patent publication US20250129067A1 (Progentos Therapeutics, Inc., priority 2021, published 2025).

SMILES strings stand for the structures. Read-outs that look alike come from different tables or passages of the source. Where only a bound is given, the exact number is not on record here.

Data set [1] has as its system Oligodendrocyte progenitor cells (OPCs). The data set can be described thus: In vitro OPC differentiation assay, GPR17 expression (immunocytochemistry). The note with it: 72 hours; for GPR17 Fold Induction (Over Vehicle; 3 μM): 3 μM (10× concentration, final 0.3 μM).
The target of another data set is PDGFRα (Homo sapiens (Human), UniProt P16234). The data set can be described thus: PDGFRα kinase enzyme assay (Promega PDGFRα Kinase Enzyme System, ADP-Glo). The class given is biochemical. The note with it: 150 uM ATP. The method, boiled down:
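Read-out was ADP-Glo: remaining ATP depleted, ADP converted to luminescence and compared with a standard curve.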

[2] abbreviates: 11-point dose response, 10,000 nM to 0.169 nM, BLQ = below limit of quantitation, read-out: IC50 Values on PDGFRα Kinase Inhibition, IC50.

Sequence of PDGFRα (P16234 24-1089): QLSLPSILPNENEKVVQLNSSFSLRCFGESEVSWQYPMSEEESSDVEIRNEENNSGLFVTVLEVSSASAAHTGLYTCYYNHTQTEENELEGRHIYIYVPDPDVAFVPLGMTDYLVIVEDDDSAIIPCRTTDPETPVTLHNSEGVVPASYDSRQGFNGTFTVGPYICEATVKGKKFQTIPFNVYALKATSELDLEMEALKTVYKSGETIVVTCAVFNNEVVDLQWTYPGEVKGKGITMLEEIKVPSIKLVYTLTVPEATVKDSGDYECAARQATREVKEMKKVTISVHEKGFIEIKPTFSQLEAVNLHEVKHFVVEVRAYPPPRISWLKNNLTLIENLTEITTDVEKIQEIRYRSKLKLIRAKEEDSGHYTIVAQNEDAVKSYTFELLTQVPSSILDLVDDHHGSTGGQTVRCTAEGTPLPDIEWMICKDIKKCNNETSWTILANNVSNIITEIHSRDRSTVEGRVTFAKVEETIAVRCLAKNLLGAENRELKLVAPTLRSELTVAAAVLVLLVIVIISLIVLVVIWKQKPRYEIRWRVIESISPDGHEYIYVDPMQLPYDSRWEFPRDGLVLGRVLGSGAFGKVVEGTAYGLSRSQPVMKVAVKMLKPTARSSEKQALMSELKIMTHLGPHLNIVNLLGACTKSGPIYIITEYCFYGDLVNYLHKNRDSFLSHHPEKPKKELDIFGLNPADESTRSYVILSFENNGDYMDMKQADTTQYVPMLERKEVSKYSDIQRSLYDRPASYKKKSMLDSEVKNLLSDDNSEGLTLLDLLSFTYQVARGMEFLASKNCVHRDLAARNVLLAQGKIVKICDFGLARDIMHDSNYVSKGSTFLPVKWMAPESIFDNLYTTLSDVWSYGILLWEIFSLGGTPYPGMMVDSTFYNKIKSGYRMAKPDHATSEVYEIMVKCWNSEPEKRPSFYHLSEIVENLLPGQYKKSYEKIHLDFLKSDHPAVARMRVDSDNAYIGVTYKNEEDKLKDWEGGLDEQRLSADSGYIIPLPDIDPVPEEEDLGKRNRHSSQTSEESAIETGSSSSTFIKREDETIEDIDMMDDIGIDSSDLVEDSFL

Take `CC(C)NC(=O)N1CCN(c2cnn3cc(-c4cnn(C)c4)ccc23)CC1` [Compound 47, N-isopropyl 4-[6-(1-methyl-1H-pyrazol-4-yl)pyrazolo[1,5-a]pyridin-3-yl]piperazine-1-carboxamide]: the “GPR17 Fold Induction (Over Vehicle; 3 μM)” value in data set [1] (fold change over vehicle) came to 1.13. Moreover, the 50% inhibitory concentration (IC50) at PDGFRα (setting [2]) was 3.99 µM.

Turning to `Cn1cc(-c2ccc3c(N4CCN(S(=O)(=O)NCc5ccc(Cl)cc5)CC4)cnn3c2)cn1` [Compound 292, N-(4-chlorobenzyl)-4-(6-(1-methyl-1H-pyrazol-4-yl)pyrazolo[1,5-a]pyridin-3-yl)piperazine-1-sulfonamide], the “GPR17 Fold Induction (Over Vehicle; 3 μM)” value in data set [1] (fold change over vehicle) came to 9.78. For the same compound, on PDGFRα (setting [2]), the 50% inhibitory concentration (IC50) was determined as 0.05 µM.

Take `CN(CCCNc1ncc(Cc2ccccc2)cn1)c1cnn2cc(-c3cnn(C)c3)ccc12` [Compound 128, N^1-(5-benzylpyrimidin-2-yl)-N^3-methyl-N^3-(6-(1-methyl-1H-pyrazol-4-yl)pyrazolo[1,5-a]pyridin-3-yl)propane-1,3-diamine]: the “GPR17 Fold Induction (Over Vehicle; 3 μM)” value in data set [1] (fold change over vehicle) is listed as 1.45. On PDGFRα (setting [2]), the IC50 was above 10 µM.

In the case of `Cn1cc(-c2ccc3c(N4CCN(c5ncc(Cc6nccs6)cn5)CC4)cnn3c2)cn1` [Compound 182, 2-((2-(4-(6-(1-methyl-1H-pyrazol-4-yl)pyrazolo[1,5-a]pyridin-3-yl)piperazin-1-yl)pyrimidin-5-yl)methyl) thiazole], the “GPR17 Fold Induction (Over Vehicle; 3 μM)” value in data set [1] (fold change over vehicle) is given as 13.16. Besides, the 50% inhibitory concentration (IC50) at PDGFRα (setting [2]) was found to be 6.99 µM.

As to `CN(CCNc1ncc(Cc2ccccc2)cn1)c1cnn2cc(-c3cnn(C)c3)ccc12` [Compound 125, N^1-(5-benzylpyrimidin-2-yl)-N^2-methyl-N^2-(6-(1-methyl-1H-pyrazol-4-yl)pyrazolo[1,5-a]pyridin-3-yl)ethane-1,2-diamine], the “GPR17 Fold Induction (Over Vehicle; 3 μM)” value in data set [1] (fold change over vehicle) was 1.09. The IC50 on PDGFRα (setting [2]) was above 10 µM.

In the case of `CCC(O)c1cnc(N2CCN(c3cnn4cc(-c5cnn(C)c5)ccc34)CC2)nc1` (stereo not shown) [Compound 287, 1-(2-{4-[6-(1-methyl-1H-pyrazol-4-yl)pyrazolo[1,5-a]pyridin-3-yl]piperazin-1-yl}pyrimidin-5-yl)propan-1-ol], the “GPR17 Fold Induction (Over Vehicle; 3 μM)” value in data set [1] (fold change over vehicle) was determined as 6.48. In addition, the IC50 at PDGFRα (setting [2]) stood at 2.47 µM.

Turning to `COCCn1cc(-c2ccn3c(N4CCN(C(=O)OC(C)(C)C)CC4)cnc3n2)cn1` [Compound 101, tert-butyl 4-(7-(1-(2-methoxyethyl)-1H-pyrazol-4-yl)imidazo[1,2-a]pyrimidin-3-yl)piperazine-1-carboxylate], the “GPR17 Fold Induction (Over Vehicle; 3 μM)” value in data set [1] (fold change over vehicle) was found to be 0.67. The 50% inhibitory concentration (IC50) on PDGFRα (setting [2]) came to 3.42 µM.

`CC(O)C(O)c1cnc(N2CCN(c3cnn4cc(-c5cnn(C)c5)ccc34)CC2)nc1` (stereo not shown) [Compound 286, 1-(2-(4-(6-(1-methyl-1H-pyrazol-4-yl)pyrazolo[1,5-a]pyridin-3-yl)piperazin-1-yl)pyrimidin-5-yl)propane-1,2-diol]: in data set [1] (fold change over vehicle), the “GPR17 Fold Induction (Over Vehicle; 3 μM)” value is on record as 4.95. At PDGFRα (setting [2]), the 50% inhibitory concentration (IC50) is 1.79 µM.

With `CN(CCNc1cnn2cc(-c3cnn(C)c3)ccc12)c1ncc(Cc2ccccc2)cn1` [Compound 126, N^1-(5-benzylpyrimidin-2-yl)-N^1-methyl-N^2-(6-(1-methyl-1H-pyrazol-4-yl)pyrazolo[1,5-a]pyridin-3-yl)ethane-1,2-diamine], the “GPR17 Fold Induction (Over Vehicle; 3 μM)” value in data set [1] (fold change over vehicle) amounted to 5.91. Moreover, on PDGFRα (setting [2]), the concentration for half-maximal inhibition (IC50) worked out at 7.12 µM.

Consider `Cn1cc(-c2ccc3c(N4CCN(c5ncc(Sc6ccccc6)cn5)CC4)cnn3c2)cn1` [Compound 188, 6-(1-methyl-1H-pyrazol-4-yl)-3-(4-(5-(phenylthio)pyrimidin-2-yl)piperazin-1-yl)pyrazolo[1,5-a]pyridine], for which the “GPR17 Fold Induction (Over Vehicle; 3 μM)” value in data set [1] (fold change over vehicle) is reported as 6.03. Besides, the IC50 at PDGFRα (setting [2]) is 5.1 µM.

On to `CN(CCN(C)c1cnc2nc(C3CCOC3)ccn12)C(=O)OC(C)(C)C` (stereo not shown) [Compound 100], for which the “GPR17 Fold Induction (Over Vehicle; 3 μM)” value in data set [1] (fold change over vehicle) turned out to be 0.83. In addition, the IC50 at PDGFRα (setting [2]) is above 10 µM.

As to `Cn1cc(-c2cc3ncc(N4CCCN(C(=O)OC(C)(C)C)CC4)n3cn2)cn1` [Compound 85, tert-butyl 4-(7-(1-methyl-1H-pyrazol-4-yl)imidazo[1,2-c]pyrimidin-3-yl)-1,4-diazepane-1-carboxylate], the “GPR17 Fold Induction (Over Vehicle; 3 μM)” value in data set [1] (fold change over vehicle) came to 0.82. Further, the 50% inhibitory concentration (IC50) at PDGFRα (setting [2]) was 1.57 µM.

On to `COc1ccc(-c2cncc(N[C@@H](C)c3cccc(NC(=O)c4cncc(C)c4)c3)n2)cc1OC` [Seralutinib, seralutinib, reference compound], for which, in data set [1] (primary rat OPCs, 5 μM (10x; final 0.5 μM per method), percent GPR17+ cells as fold change over vehicle), the “GPR17 Fold Induction (Over Vehicle; 5 μM)” value came out at 3.53. Besides, the IC50 at PDGFRα (20 ng purified PDGFRα, Poly (Glu4Tyr1) substrate, two hours, 11-point dose response, read-out: IC50 Values on PDGFRα Kinase Inhibition) stood at 0.228 µM.

Consider `Cn1cc(-c2cnn3c(N4CCN(C(=O)NCc5ccc(C(F)(F)F)cc5)CC4)cnc3c2)cn1` [Compound 295, 4-(7-(1-methyl-1H-pyrazol-4-yl)imidazo[1,2-b]pyridazin-3-yl)-N-(4-(trifluoromethyl)benzyl)piperazine-1-carboxamide], for which the “GPR17 Fold Induction (Over Vehicle; 3 μM)” value in data set [1] (fold change over vehicle) is recorded as 8.65. Further, at PDGFRα (setting [2]), the IC50 is 0.0317 µM.

As to `Cn1cc(-c2cn3ncc(N4CCN(c5ncc(Cc6ccccc6)cn5)CC4)c3cn2)cn1` [Compound 22, 3-[4-(5-Benzylpyrimidin-2-yl)piperazin-1-yl]-6-(1-methyl-1H-pyrazol-4-yl)pyrazolo[1,5-a]pyrazine], in data set [1] (fold change over vehicle), the “GPR17 Fold Induction (Over Vehicle; 3 μM)” value is 6.13. The “GPR17 Fold Induction (Over Vehicle; 5 μM)” value in data set [1] (5 μM (10× concentration, final 0.5 μM), fold change over vehicle) was found to be 3.46. Moreover, the half-inhibitory concentration (IC50) on PDGFRα (setting [2]) was above 10 µM.

Consider `Cn1cc(-c2ccc3c(N4CCN(c5ncc([C@@H](O)[C@@H]6CCCOC6)cn5)CC4)cnn3c2)cn1` [Compound 193, (S)-(2-(4-(6-(1-methyl-1H-pyrazol-4-yl)pyrazolo[1,5-a]pyridin-3-yl)piperazin-1-yl)pyrimidin-5-yl)((R)-tetrahydro-2H-pyran-3-yl)methanol], for which the “GPR17 Fold Induction (Over Vehicle; 3 μM)” value in data set [1] (fold change over vehicle) is 11.72. The IC50 at PDGFRα (setting [2]) came to 0.0691 µM.

Consider `Cn1cc(-c2cc3ncc(N4CCN(C(=O)OC(C)(C)C)CC4)n3cn2)cn1` [Compound 83, tert-butyl 4-(7-(1-methyl-1H-pyrazol-4-yl)imidazo[1,2-c]pyrimidin-3-yl)piperazine-1-carboxylate], for which the “GPR17 Fold Induction (Over Vehicle; 3 μM)” value in data set [1] (fold change over vehicle) came out at 6.49. Moreover, at PDGFRα (setting [2]), the IC50 was found to be 0.948 µM.

Consider `Cn1cc(-c2ccc3c(N4CCN(c5cnc(Cc6ccccc6)nc5)CC4)cnn3c2)cn1` [Compound 70, 3-[4-(2-benzylpyrimidin-5-yl)piperazin-1-yl]-6-(1-methyl-1H-pyrazol-4-yl)pyrazolo[1,5-a]pyridine], for which the “GPR17 Fold Induction (Over Vehicle; 3 μM)” value in data set [1] (fold change over vehicle) is 3.72. Further, the half-inhibitory concentration (IC50) at PDGFRα (setting [2]) is 6.7 µM.

For the compound `Cn1cc(-c2ccc3c(N4CCCN(C(=O)OC(C)(C)C)CC4)cnn3c2)cn1` [Compound 40, tert-butyl 4-(6-(1-methyl-1H-pyrazol-4-yl)pyrazolo[1,5-a]pyridin-3-yl)-1,4-diazepane-1-carboxylate], the “GPR17 Fold Induction (Over Vehicle; 3 μM)” value in data set [1] (fold change over vehicle) is 1.27. The concentration for half-maximal inhibition (IC50) at PDGFRα (setting [2]) is 2.42 µM.

Consider `Cn1cc(-c2ccc3c(C4=CCC(C(=O)OCc5ccccc5)CC4)cnn3c2)cn1` (stereo not shown) [Compound 132, benzyl 4-(6-(1-methyl-1H-pyrazol-4-yl)pyrazolo[1,5-a]pyridin-3-yl)cyclohex-3-ene-1-carboxylate], for which the “GPR17 Fold Induction (Over Vehicle; 3 μM)” value in data set [1] (fold change over vehicle) worked out at 5.85. Further, on PDGFRα (setting [2]), the 50% inhibitory concentration (IC50) was found to be 0.744 µM.

On to `Cn1cc(-c2ccc3c(N4CCN(c5nc(Cc6ccccc6)ns5)CC4)cnn3c2)cn1` [Compound 245, 3-benzyl-5-(4-(6-(1-methyl-1H-pyrazol-4-yl)pyrazolo[1,5-a]pyridin-3-yl)piperazin-1-yl)-1,2,4-thiadiazole], for which the “GPR17 Fold Induction (Over Vehicle; 3 μM)” value in data set [1] (fold change over vehicle) is reported as 5.22. Further, the IC50 at PDGFRα (setting [2]) was above 10 µM.

Take `CN(CCN(C)c1cnc2cc(-c3cnn(C)c3)ncn12)C(=O)OC(C)(C)C` [Compound 95, tert-butyl methyl(2-(methyl(7-(1-methyl-1H-pyrazol-4-yl)imidazo[1,2-c]pyrimidin-3-yl)amino)ethyl)carbamate]: the “GPR17 Fold Induction (Over Vehicle; 3 μM)” value in data set [1] (fold change over vehicle) was found to be 1.16. Moreover, the IC50 on PDGFRα (setting [2]) was above 10 µM.

As for `Cn1cc(-c2ccc3c(N4CCN(C(=O)OC(C)(C)C)CCC4=O)cnn3c2)cn1` [Compound 27, tert-butyl 4-[6-(1-methyl-1H-pyrazol-4-yl)pyrazolo[1,5-a]pyridine-3-yl]-5-oxo-1,4-diazepane-1-carboxylate], the “GPR17 Fold Induction (Over Vehicle; 3 μM)” value in data set [1] (fold change over vehicle) came out at 0.96. In addition, the half-maximal inhibitory concentration (IC50) at PDGFRα (setting [2]) is above 10 µM.

Turning to `C[C@@H](OC(=O)N1CCN(c2cnn3cc(-c4cnn(C)c4)ccc23)CC1)c1ccncc1` [Compound 289, (R)-1-(pyridin-4-yl)ethyl 4-(6-(1-methyl-1H-pyrazol-4-yl)pyrazolo[1,5-a]pyridin-3-yl)piperazine-1-carboxylate], the “GPR17 Fold Induction (Over Vehicle; 3 μM)” value in data set [1] (fold change over vehicle) is listed as 7.44. The half-inhibitory concentration (IC50) at PDGFRα (setting [2]) was determined as 0.43 µM.

Consider `Cn1cc(-c2ccn3c(N4CCN(c5ncc(Cc6ccccc6)cn5)CC4)cnc3n2)cn1` [Compound 121, 3-(4-(5-benzylpyrimidin-2-yl)piperazin-1-yl)-7-(1-methyl-1H-pyrazol-4-yl)imidazo[1,2-a]pyrimidine], for which the “GPR17 Fold Induction (Over Vehicle; 3 μM)” value in data set [1] (fold change over vehicle) came to 4.71. For the same compound, the 50% inhibitory concentration (IC50) on PDGFRα (setting [2]) amounted to 0.818 µM.

With `Cn1cc(-c2ccc3c(N4CCN(c5nnc(Cc6ccccc6)o5)CC4)cnn3c2)cn1` [Compound 155, 2-benzyl-5-(4-(6-(1-methyl-1H-pyrazol-4-yl)pyrazolo[1,5-a]pyridin-3-yl)piperazin-1-yl)-1,3,4-oxadiazole], the “GPR17 Fold Induction (Over Vehicle; 3 μM)” value in data set [1] (fold change over vehicle) stood at 5.02. Further, the 50% inhibitory concentration (IC50) on PDGFRα (setting [2]) stood at 0.0586 µM.

As to `CC(C)(C)OC(=O)N1CCN(c2cnn3cc(-c4cncnc4)ccc23)CC1` [Compound 219, tert-butyl 4-(6-(pyrimidin-5-yl)pyrazolo[1,5-a]pyridin-3-yl)piperazine-1-carboxylate], in data set [1] (fold change over vehicle), the “GPR17 Fold Induction (Over Vehicle; 3 μM)” value was 1.42. The IC50 on PDGFRα (setting [2]) is above 10 µM.
